Assay results as given in ChEMBL document CHEMBL3991601, “The target landscape of clinical kinase drugs” (Science, 2017).
Active and inactive are the calls of the source. For most assays here, no stated cut-off is given here; in the data, actives have a measured Kd and inactives only a lower limit.

Tests used:
[1] = biological target: GTP-binding nuclear protein Ran (Homo sapiens, UniProt P62826)
[2] = biological target: Mitogen-activated protein kinase kinase kinase kinase 1 (Homo sapiens, UniProt Q92918)
Sequence of Mitogen-activated protein kinase kinase kinase kinase 1 (Q92918 whole entry): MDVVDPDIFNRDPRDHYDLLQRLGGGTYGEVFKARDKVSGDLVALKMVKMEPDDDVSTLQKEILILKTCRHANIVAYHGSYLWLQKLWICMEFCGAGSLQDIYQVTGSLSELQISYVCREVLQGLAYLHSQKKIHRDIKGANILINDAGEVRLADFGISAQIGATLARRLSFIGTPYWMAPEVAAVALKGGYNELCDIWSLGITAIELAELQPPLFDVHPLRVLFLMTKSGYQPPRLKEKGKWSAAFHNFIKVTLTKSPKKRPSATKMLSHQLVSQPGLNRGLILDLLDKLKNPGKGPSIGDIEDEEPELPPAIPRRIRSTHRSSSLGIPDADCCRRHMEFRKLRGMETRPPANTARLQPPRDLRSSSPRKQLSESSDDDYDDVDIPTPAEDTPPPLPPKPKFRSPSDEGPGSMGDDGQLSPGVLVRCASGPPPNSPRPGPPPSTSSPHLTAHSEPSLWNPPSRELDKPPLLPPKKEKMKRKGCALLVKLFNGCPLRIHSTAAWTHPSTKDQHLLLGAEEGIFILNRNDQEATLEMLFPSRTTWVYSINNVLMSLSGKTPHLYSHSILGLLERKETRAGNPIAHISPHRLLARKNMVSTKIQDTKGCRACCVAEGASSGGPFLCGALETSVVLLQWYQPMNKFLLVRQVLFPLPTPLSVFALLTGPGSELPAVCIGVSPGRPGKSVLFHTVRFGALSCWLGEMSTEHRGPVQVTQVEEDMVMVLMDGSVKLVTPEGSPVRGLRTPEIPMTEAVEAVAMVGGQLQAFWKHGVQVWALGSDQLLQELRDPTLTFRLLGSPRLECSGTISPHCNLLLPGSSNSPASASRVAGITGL

[3] = biological target: Cyclin-dependent kinase 2 (Homo sapiens, UniProt P24941)
[4] = biological target: Activin receptor type-2B (Homo sapiens, UniProt Q13705)
Sequence of Activin receptor type-2B (Q13705 whole entry): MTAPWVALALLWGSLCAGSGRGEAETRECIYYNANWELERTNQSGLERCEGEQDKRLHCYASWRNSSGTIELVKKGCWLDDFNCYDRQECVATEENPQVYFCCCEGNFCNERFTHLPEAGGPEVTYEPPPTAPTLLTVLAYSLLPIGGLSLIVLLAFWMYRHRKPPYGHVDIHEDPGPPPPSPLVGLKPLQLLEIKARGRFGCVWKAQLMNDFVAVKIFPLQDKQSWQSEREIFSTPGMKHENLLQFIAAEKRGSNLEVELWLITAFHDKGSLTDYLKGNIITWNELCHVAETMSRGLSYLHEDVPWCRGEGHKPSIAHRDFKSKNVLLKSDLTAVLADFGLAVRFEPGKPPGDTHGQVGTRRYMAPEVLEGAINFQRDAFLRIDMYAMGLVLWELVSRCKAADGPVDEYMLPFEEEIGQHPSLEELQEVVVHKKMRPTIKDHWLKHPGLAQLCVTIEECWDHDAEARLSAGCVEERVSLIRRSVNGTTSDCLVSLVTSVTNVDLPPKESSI

[5] = biological target: Cyclin-dependent kinase 4 (Homo sapiens, UniProt P11802)
Sequence of Cyclin-dependent kinase 4 (P11802 whole entry): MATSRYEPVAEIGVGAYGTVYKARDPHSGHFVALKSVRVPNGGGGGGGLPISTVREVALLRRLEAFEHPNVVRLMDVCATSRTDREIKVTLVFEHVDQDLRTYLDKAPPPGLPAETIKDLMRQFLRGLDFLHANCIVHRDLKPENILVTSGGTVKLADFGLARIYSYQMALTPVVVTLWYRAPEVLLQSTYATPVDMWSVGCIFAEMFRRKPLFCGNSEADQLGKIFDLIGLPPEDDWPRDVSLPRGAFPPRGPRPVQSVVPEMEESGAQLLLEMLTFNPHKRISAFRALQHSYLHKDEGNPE

[6] = biological target: Membrane-associated progesterone receptor component 1 (Homo sapiens, UniProt O00264)
Sequence of Membrane-associated progesterone receptor component 1 (O00264 whole entry): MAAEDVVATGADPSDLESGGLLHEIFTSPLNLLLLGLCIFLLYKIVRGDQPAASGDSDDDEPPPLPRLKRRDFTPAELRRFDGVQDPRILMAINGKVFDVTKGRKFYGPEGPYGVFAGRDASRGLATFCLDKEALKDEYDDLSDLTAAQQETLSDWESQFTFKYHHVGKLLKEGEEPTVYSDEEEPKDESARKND

[7] = biological target: Glycogen synthase kinase-3 beta (Homo sapiens, UniProt P49841)
Sequence of Glycogen synthase kinase-3 beta (P49841 whole entry): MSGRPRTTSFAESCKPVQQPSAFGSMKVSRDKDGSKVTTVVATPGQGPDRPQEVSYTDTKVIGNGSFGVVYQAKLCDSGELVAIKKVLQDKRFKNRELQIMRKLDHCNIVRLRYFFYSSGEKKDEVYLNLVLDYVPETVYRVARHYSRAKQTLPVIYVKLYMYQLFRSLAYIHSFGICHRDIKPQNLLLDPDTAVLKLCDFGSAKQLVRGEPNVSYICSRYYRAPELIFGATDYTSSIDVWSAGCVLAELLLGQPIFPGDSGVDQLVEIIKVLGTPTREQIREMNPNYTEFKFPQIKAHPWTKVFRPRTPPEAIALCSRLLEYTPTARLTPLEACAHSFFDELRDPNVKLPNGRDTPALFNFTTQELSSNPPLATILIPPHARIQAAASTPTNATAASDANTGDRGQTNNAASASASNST

[8] = biological target: T1, Adenine phosphoribosyltransferase (Homo sapiens, UniProt P07741)
T1 sequence (P07741 whole entry): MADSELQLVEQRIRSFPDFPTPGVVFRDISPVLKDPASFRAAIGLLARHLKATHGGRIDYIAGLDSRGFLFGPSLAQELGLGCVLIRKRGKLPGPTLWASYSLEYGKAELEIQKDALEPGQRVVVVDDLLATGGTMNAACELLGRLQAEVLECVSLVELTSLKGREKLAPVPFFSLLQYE

[9] = biological target: T2, Mitogen-activated protein kinase 15 (Homo sapiens, UniProt Q8TD08)
T2 sequence (Q8TD08 whole entry): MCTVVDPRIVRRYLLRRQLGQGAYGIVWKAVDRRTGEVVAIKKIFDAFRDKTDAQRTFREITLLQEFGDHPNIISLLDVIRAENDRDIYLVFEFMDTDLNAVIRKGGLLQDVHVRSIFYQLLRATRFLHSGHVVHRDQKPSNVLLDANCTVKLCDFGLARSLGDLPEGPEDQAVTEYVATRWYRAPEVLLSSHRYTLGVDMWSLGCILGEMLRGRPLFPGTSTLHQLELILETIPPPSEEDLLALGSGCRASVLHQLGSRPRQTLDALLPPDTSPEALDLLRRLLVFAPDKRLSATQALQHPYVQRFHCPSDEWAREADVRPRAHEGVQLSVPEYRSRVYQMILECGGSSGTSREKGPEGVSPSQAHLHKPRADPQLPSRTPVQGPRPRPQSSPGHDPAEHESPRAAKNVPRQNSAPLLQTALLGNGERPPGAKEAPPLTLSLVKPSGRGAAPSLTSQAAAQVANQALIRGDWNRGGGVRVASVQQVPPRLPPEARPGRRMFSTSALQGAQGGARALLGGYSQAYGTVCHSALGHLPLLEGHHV

[10] = biological target: Calcium/calmodulin-dependent protein kinase type II subunit gamma (Homo sapiens, UniProt Q13555)
[11] = biological target: PAS domain-containing serine/threonine-protein kinase (Homo sapiens, UniProt Q96RG2)
Sequence of PAS domain-containing serine/threonine-protein kinase (Q96RG2 whole entry, the tested form may be a part): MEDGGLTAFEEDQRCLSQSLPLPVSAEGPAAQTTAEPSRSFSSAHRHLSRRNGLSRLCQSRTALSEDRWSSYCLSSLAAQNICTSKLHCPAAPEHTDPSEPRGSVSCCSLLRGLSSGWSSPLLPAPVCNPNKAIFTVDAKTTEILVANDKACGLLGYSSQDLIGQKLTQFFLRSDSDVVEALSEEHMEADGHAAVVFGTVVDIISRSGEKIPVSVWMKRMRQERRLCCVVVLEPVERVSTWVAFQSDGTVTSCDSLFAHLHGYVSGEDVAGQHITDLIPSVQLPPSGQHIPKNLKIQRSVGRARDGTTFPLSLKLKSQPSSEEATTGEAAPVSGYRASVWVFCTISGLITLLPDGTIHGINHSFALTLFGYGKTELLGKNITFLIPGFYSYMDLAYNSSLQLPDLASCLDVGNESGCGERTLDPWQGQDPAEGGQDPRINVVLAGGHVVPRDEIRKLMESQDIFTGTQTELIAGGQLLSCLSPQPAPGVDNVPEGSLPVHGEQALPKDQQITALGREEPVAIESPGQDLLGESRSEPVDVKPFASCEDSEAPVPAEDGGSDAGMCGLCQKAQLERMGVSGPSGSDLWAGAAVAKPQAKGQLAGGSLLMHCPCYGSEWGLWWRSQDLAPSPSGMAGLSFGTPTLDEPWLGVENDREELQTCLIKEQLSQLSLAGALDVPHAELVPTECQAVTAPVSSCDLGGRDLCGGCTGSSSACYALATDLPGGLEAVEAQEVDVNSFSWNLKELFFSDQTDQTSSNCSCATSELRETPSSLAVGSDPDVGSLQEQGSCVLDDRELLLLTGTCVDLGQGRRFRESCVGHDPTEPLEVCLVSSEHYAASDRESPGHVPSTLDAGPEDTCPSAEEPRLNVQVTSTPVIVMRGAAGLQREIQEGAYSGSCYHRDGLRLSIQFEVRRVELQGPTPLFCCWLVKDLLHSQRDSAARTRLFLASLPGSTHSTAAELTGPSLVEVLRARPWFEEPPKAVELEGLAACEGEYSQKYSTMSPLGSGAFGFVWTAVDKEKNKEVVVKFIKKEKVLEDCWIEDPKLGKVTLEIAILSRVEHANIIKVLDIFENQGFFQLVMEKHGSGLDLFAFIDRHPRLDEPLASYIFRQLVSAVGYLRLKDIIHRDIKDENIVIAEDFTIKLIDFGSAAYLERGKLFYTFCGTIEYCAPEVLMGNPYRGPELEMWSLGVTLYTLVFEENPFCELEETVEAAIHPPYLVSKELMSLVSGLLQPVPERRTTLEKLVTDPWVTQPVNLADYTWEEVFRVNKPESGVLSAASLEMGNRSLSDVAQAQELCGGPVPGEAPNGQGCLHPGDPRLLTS

[12] = biological target: Cyclin-dependent kinase 5 (Homo sapiens, UniProt Q00535)
Sequence of Cyclin-dependent kinase 5 (Q00535 whole entry): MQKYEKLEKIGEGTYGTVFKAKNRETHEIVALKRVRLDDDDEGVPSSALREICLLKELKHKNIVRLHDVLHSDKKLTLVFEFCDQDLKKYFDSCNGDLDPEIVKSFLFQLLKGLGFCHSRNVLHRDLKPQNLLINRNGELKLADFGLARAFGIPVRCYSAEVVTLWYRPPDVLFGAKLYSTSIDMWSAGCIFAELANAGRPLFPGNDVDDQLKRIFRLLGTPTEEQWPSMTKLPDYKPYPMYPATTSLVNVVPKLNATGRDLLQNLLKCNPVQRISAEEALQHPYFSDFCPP

[13] = biological target: RAC-alpha serine/threonine-protein kinase (Homo sapiens, UniProt P31749)
Sequence of RAC-alpha serine/threonine-protein kinase (P31749 whole entry): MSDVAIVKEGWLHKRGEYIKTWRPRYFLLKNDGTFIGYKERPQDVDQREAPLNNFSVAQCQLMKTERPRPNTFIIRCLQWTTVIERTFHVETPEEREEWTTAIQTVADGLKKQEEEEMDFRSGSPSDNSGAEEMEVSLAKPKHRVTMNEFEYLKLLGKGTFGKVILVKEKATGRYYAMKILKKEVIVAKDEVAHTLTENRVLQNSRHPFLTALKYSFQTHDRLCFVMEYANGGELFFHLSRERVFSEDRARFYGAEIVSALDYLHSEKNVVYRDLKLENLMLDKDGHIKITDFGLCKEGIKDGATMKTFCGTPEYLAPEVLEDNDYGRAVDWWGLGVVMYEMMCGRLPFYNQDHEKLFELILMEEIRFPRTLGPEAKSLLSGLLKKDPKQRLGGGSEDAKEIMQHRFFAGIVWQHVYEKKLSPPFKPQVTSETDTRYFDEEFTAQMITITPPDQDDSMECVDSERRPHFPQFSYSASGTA

[14] = biological target: T3, Serine/threonine-protein kinase PLK4 (Homo sapiens, UniProt O00444)
T3 sequence (O00444 whole entry): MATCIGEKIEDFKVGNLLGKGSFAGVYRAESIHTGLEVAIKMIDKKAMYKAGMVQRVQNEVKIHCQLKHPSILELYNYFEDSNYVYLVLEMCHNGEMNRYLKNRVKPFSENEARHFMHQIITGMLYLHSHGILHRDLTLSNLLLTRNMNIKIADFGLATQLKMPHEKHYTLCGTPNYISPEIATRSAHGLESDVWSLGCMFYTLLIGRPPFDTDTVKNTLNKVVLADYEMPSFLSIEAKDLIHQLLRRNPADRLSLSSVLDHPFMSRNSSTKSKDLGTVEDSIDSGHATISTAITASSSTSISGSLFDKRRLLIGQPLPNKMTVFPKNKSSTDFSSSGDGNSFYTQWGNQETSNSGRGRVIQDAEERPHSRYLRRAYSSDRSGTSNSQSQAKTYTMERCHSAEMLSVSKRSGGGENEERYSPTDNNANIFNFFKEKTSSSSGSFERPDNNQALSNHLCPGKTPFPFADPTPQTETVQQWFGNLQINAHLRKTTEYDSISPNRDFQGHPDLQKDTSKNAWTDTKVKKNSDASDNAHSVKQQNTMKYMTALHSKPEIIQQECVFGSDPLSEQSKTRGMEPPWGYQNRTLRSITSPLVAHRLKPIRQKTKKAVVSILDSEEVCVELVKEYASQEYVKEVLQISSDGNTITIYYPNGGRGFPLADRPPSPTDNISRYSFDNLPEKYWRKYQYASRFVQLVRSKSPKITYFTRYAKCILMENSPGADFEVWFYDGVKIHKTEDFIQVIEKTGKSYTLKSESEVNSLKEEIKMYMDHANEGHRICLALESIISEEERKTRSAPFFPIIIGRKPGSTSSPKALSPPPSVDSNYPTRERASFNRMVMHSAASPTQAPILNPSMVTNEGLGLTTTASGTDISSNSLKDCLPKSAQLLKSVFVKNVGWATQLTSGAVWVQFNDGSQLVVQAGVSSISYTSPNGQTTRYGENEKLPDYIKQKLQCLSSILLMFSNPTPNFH

[15] = biological target: Citron Rho-interacting kinase (Homo sapiens, UniProt O14578)
[16] = biological target: Tyrosine-protein kinase CSK (Homo sapiens, UniProt P41240)
[17] = biological target: GTP-binding protein 4 (Homo sapiens, UniProt Q9BZE4)
[18] = biological target: LIM domain kinase 1 (Homo sapiens, UniProt P53667)
Sequence of LIM domain kinase 1 (P53667 whole entry, the tested form may be a part, canonical isoform): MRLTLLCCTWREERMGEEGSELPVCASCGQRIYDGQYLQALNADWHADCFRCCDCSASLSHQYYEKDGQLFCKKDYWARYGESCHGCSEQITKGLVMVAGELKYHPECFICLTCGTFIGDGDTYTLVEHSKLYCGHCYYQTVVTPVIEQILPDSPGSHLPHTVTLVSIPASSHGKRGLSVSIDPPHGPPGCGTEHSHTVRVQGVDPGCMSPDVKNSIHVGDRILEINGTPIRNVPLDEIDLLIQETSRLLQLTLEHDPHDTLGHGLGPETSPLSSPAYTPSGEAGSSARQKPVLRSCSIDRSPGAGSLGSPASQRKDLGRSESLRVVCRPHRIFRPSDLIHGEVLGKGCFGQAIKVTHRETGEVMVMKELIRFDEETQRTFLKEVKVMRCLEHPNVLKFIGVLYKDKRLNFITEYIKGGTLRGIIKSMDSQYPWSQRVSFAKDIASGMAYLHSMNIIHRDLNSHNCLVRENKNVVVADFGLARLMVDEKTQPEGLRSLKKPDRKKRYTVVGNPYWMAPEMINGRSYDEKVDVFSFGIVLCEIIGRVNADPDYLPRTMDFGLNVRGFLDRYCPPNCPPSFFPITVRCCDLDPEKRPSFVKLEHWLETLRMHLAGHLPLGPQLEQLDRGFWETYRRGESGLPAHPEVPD

[19] = biological target: Casein kinase I isoform delta (Homo sapiens, UniProt P48730)
[20] = biological target: Ras-related protein Rab-6A (Homo sapiens, UniProt P20340)

Compound	Kd [1]	Kd [2]	Kd [3]	Kd [4]	Kd [5]	Kd [6]	Kd [7]	Kd [8]	Kd [10]	Kd [11]	Kd [12]	Kd [13]	Kd [14]	Kd [15]	Kd [16]	Kd [17]	Kd [18]	Kd [19]	Kd [20]	Kd [9]
C=CC(=O)N1CCC[C@H](n2c(=O)n(-c3ccc(Oc4ccccc4)cc3)c3c(N)ncnc32)C1	> 30 µM (inactive)	> 30 µM (inactive)	> 30 µM (inactive)	> 30 µM (inactive)	> 30 µM (inactive)	> 30 µM (inactive)	> 30 µM (inactive)	> 30 µM (inactive)	> 30 µM (inactive)	> 30 µM (inactive)	> 30 µM (inactive)	> 30 µM (inactive)	> 30 µM (inactive)	> 30 µM (inactive)	0.007 µM	> 30 µM (inactive)	> 30 µM (inactive)	> 30 µM (inactive)	–	> 30 µM (inactive)
COCc1c(-c2ccc(NC(=O)Nc3cc(C(F)(F)F)ccc3F)c(F)c2)c2c(N)ncnn2c1CN1CCOCC1	> 30 µM (inactive)	> 30 µM (inactive)	> 30 µM (inactive)	> 30 µM (inactive)	> 30 µM (inactive)	> 30 µM (inactive)	> 30 µM (inactive)	> 30 µM (inactive)	> 30 µM (inactive)	> 30 µM (inactive)	> 30 µM (inactive)	> 30 µM (inactive)	> 30 µM (inactive)	> 30 µM (inactive)	> 30 µM (inactive)	> 30 µM (inactive)	> 30 µM (inactive)	> 30 µM (inactive)	> 30 µM (inactive)	> 30 µM (inactive)
NC(=O)Nc1cc(-c2cccc(F)c2)sc1C(=O)N[C@H]1CCCNC1 [AZD-7762]	> 30 µM (inactive)	–	> 30 µM (inactive)	0.253 µM (active)	> 30 µM (inactive)	> 30 µM (inactive)	> 30 µM (inactive)	> 30 µM (inactive)	> 30 µM (inactive)	> 30 µM (inactive)	> 30 µM (inactive)	> 30 µM (inactive)	0.722 µM (active)	> 30 µM (inactive)	–	> 30 µM (inactive)	> 30 µM (inactive)	> 30 µM (inactive)	> 30 µM (inactive)	> 30 µM (inactive)
Cn1cnc2c(F)c(Nc3ccc(Br)cc3F)c(C(=O)NOCCO)cc21 [BINIMETINIB]	> 30 µM (inactive)	> 30 µM (inactive)	> 30 µM (inactive)	> 30 µM (inactive)	> 30 µM (inactive)	> 30 µM (inactive)	> 30 µM (inactive)	> 30 µM (inactive)	> 30 µM (inactive)	> 30 µM (inactive)	> 30 µM (inactive)	> 30 µM (inactive)	> 30 µM (inactive)	> 30 µM (inactive)	> 30 µM (inactive)	> 30 µM (inactive)	> 30 µM (inactive)	> 30 µM (inactive)	> 30 µM (inactive)	> 30 µM (inactive)
CC(C)(C)c1nc(-c2cccc(NS(=O)(=O)c3c(F)cccc3F)c2F)c(-c2ccnc(N)n2)s1 [DABRAFENIB]	> 30 µM (inactive)	> 30 µM (inactive)	0.019 µM (active)	> 30 µM (inactive)	–	> 30 µM (inactive)	–	> 30 µM (inactive)	> 30 µM (inactive)	> 30 µM (inactive)	1.07 µM (active)	–	0.52 µM (active)	> 30 µM (inactive)	0.851 µM (active)	> 30 µM (inactive)	0.033 µM (active)	> 30 µM (inactive)	> 30 µM (inactive)	> 30 µM (inactive)
CO[C@H]1C[C@@H]2CC[C@@H](C)[C@@](O)(O2)C(=O)C(=O)N2CCCC[C@H]2C(=O)O[C@H]([C@H](C)C[C@@H]2CC[C@@H](O)[C@H](OC)C2)CC(=O)[C@H](C)/C=C(\C)[C@@H](O)[C@@H](OC)C(=O)[C@H](C)C[C@H](C)/C=C/C=C/C=C/1C [SIROLIMUS]	> 30 µM (inactive)	> 30 µM (inactive)	> 30 µM (inactive)	> 30 µM (inactive)	> 30 µM (inactive)	–	> 30 µM (inactive)	> 30 µM (inactive)	> 30 µM (inactive)	> 30 µM (inactive)	> 30 µM (inactive)	> 30 µM (inactive)	> 30 µM (inactive)	> 30 µM (inactive)	> 30 µM (inactive)	> 30 µM (inactive)	> 30 µM (inactive)	> 30 µM (inactive)	> 30 µM (inactive)	> 30 µM (inactive)

Now from value to molecule, other results behind:

Kd [1]	Kd [2]	Kd [3]	Kd [4]	Kd [5]	Kd [6]	Kd [7]	Kd [8]	Kd [10]	Kd [11]	Kd [12]	Kd [13]	Kd [14]	Kd [15]	Kd [16]	Kd [17]	Kd [18]	Kd [19]	Kd [20]	Compound	Kd [9]
> 30 µM (inactive)	> 30 µM (inactive)	> 30 µM (inactive)	> 30 µM (inactive)	> 30 µM (inactive)	> 30 µM (inactive)	> 30 µM (inactive)	> 30 µM (inactive)	> 30 µM (inactive)	> 30 µM (inactive)	> 30 µM (inactive)	> 30 µM (inactive)	> 30 µM (inactive)	> 30 µM (inactive)	> 30 µM (inactive)	> 30 µM (inactive)	> 30 µM (inactive)	> 30 µM (inactive)	> 30 µM (inactive)	Cc1cc(C(=O)NOCCO)c(Nc2ccc(I)cc2F)n(C)c1=O [AZD-8330]	> 30 µM (inactive)
> 30 µM (inactive)	> 30 µM (inactive)	> 30 µM (inactive)	> 30 µM (inactive)	> 30 µM (inactive)	> 30 µM (inactive)	> 30 µM (inactive)	> 30 µM (inactive)	> 30 µM (inactive)	> 30 µM (inactive)	> 30 µM (inactive)	> 30 µM (inactive)	> 30 µM (inactive)	> 30 µM (inactive)	> 30 µM (inactive)	> 30 µM (inactive)	> 30 µM (inactive)	> 30 µM (inactive)	> 30 µM (inactive)	COc1cc2ncnc(Oc3cccc(NC(=O)Nc4cc(C(C)(C)C(F)(F)F)on4)c3)c2cc1OC [CEP-32496]	> 30 µM (inactive)
